ChEMBL document CHEMBL5338775, “Discovery of a Novel Class of PROTACs as Potent and Selective Estrogen Receptor α Degraders to Overcome Endocrine-Resistant Breast Cancer In Vitro and In Vivo” (J Med Chem, 2023)
Activity calls are given as the source filed them. No cut-off for these calls is given here.

Legend:
[1] = molecular target: T1, Estrogen receptor (Homo sapiens, UniProt P03372)
T1 sequence (P03372 whole entry): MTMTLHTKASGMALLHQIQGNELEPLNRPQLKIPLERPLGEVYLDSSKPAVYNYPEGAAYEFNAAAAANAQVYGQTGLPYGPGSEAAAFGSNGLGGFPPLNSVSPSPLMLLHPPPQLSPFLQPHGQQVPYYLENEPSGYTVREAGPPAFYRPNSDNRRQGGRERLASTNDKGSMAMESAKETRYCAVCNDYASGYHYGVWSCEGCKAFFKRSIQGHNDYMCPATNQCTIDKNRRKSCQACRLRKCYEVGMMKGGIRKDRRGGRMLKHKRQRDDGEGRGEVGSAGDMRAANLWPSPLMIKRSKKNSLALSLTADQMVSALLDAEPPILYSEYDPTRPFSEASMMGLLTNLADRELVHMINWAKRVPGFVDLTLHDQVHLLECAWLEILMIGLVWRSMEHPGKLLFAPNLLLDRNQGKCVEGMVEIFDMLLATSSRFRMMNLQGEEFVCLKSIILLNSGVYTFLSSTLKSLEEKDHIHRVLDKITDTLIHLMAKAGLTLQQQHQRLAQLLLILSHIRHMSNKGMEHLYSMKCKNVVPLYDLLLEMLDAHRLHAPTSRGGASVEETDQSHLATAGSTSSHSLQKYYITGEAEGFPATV

[2] = system: T47D; experiment: Inhibition of gene transcription in human T47D cells assessed as reduction in H3K27ac levels in GREB1 promoter region by ChIP-seq analysis; type: functional, cell-based
[3] = molecular target: T2, Estrogen receptor beta (Homo sapiens, UniProt Q92731); experiment: Binding affinity to ERbeta (unknown origin) assessed as relative binding affinity incubated for 2 hrs by fluorescence polarization assay relative to estradiol
[4] = molecular target: T3, von Hippel-Lindau disease tumor suppressor/Estrogen receptor (Homo sapiens) (UniProt P03372+P40337); experiment: PROTAC activity at VHL/ERalpha in ER-positive human MCF7 cells assessed as induction of ERalpha degradation at 0.01 to 10 uM incubated for 12 hrs by Western blot analysis; type: cell-based; conditions: dose 0.01-10 µM
[5] = system: T47D; experiment: Inhibition of nascent IGFBP4 RNA synthesis in human T47D cells incubated for 6 hrs by 4-thiouridine incorporation assay; type: functional, cell-based
[6] = molecular target: von Hippel-Lindau disease tumor suppressor/Estrogen receptor beta (Homo sapiens) (UniProt Q92731+P40337); experiment: PROTAC activity at VHL/ERbeta in human NCI-H1975 cells assessed as induction of ERbeta degradation at 1 to 10 uM incubated for 12 hrs by Western blot analysis; type: cell-based; conditions: dose 1-10 µM
[7] = cells; conditions: Homo sapiens, Tamoxifen-resistant LCC2 cell, 72 h
[8] = molecular target: T2, Estrogen receptor beta
[9] = system: Mus musculus; experiment: In vivo protac activity at VHL/ERalpha in BALB/c nude mouse xenografted with human ER-positive tamoxifen-resistant LCC2 cells assessed as reduction in ERalpha protein levels in tumor at 5 micromol/kg, ip administered once every 2 days by Western blot analysis; type: functional, organism-based; conditions: dose 5.0 µmol/kg
[10] = molecular target: T3, von Hippel-Lindau disease tumor suppressor/Estrogen receptor (Homo sapiens); experiment: PROTAC activity at VHL/wild type ERalpha in ER-positive human T47D cells assessed as induction of ERalpha degradation at 2 uM incubated for 12 hrs by Western blot analysis; type: cell-based
[11] = in vitro; conditions: human, MCF-10A cells
[12] = system: T47D; experiment: cells; conditions: Homo sapiens, 72 h
[13] = system: T47D; experiment: Inhibition of gene transcription in human T47D cells assessed as reduction in Pol II occupancy at GREB1 promoter region by ChIP-seq analysis; type: functional, cell-based
[14] = system: T47D; experiment: Inhibition of gene transcription in human T47D cells assessed as reduction in H3K27ac levels in IGFBP4 promoter region by ChIP-seq analysis; type: functional, cell-based
[15] = Selectivity ratio of relative binding affinity for ERalpha (unknown origin) to relative binding affinity to ERbeta (unknown origin)
[16] = system: MCF7; experiment: Induction of apoptosis in human MCF7 cells at 1 to 10 uM incubated for 24 hrs by Annexin V-FITC/PI staining based analysis; type: functional, cell-based; conditions: dose 1-10 µM
[17] = system: tamoxifen-resistant LCC2 cell; experiment: Antitumor activity against human ER-positive tamoxifen-resistant LCC2 cells xenografted in BALB/c nude mouse assessed as reduction in tumor growth at 5 micromol/kg, ip administered once every 2 days and measured every 2 days; type: functional, organism-based; conditions: dose 5.0 µmol/kg
[18] = molecular target: T3, von Hippel-Lindau disease tumor suppressor/Estrogen receptor (Homo sapiens); experiment: PROTAC activity at VHL/ERalpha in ER-positive human tamoxifen-resistant LCC2 cells assessed as induction of ERalpha degradation at 2 uM incubated for 12 hrs by Western blot analysis; type: cell-based; conditions: tamoxifen-resistant LCC2 cell
[19] = system: MDA-MB-231; experiment: cells; conditions: Homo sapiens, MDA-MB-231, 72 h
[20] = system: T47D; experiment: Inhibition of gene transcription in human T47D cells assessed as reduction in Pol II occupancy at IGFBP4 promoter region by ChIP-seq analysis; type: functional, cell-based
[21] = system: T47D; experiment: cells; conditions: Homo sapiens, 72 h; remark: listed apart in the source
[22] = molecular target: T4, Estrogen receptor (Homo sapiens) (UniProt P03372); experiment: Inhibition of ERalpha binding to DNA in human T47D cells assessed as reduction in protein occupancy incubated for 6 hrs by ChIP-seq analysis; type: cell-based
T4 sequence (whole entry): T1 sequence (P03372 whole entry)

[23] = system: MCF7; experiment: Induction of cell cycle arrest in human MCF7 cells at 1 to 10 uM incubated for 24 hrs; type: functional, cell-based; conditions: dose 1-10 µM
[24] = system: T47D; experiment: Inhibition of nascent GREB1 RNA synthesis in human T47D cells incubated for 6 hrs by 4-thiouridine incorporation assay; type: functional, cell-based
[25] = system: MCF7; experiment: cells; conditions: Homo sapiens, MCF7, 72 h
[26] = molecular target: T3, von Hippel-Lindau disease tumor suppressor/Estrogen receptor (Homo sapiens); experiment: PROTAC activity at VHL/wild type ERalpha in ER-positive human MCF7 cells assessed as induction of ERalpha degradation at 1 uM incubated for 12 hrs by Western blot analysis; type: cell-based
[27] = Selectivity index, ratio of Ki for ERalpha (unknown origin) to Ki for ERbeta (unknown origin)
[28] = system: T47D; experiment: cells; conditions: Homo sapiens, 72 h; remark: listed apart in the source

T3 sequence (P40337 whole entry, looked up, one chain of several): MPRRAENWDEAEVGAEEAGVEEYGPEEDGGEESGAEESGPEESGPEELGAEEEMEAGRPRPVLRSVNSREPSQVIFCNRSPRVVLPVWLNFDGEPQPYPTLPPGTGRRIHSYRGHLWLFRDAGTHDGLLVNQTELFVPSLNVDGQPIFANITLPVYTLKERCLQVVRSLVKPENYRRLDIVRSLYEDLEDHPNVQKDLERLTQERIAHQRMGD
T2 sequence (Q92731 whole entry): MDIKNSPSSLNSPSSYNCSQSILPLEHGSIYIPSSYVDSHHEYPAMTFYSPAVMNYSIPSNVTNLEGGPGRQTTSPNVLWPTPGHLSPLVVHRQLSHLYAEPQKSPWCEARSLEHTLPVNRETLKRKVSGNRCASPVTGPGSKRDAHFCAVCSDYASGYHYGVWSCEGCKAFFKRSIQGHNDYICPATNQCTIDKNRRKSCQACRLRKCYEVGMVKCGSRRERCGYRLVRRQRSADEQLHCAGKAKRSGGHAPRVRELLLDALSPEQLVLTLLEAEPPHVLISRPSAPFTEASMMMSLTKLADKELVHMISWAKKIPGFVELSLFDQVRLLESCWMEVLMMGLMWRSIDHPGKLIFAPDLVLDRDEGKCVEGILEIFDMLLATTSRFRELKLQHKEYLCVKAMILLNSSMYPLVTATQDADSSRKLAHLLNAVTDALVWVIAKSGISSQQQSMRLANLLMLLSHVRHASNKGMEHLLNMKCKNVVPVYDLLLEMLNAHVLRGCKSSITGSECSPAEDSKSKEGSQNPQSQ
Chain of von Hippel-Lindau disease tumor suppressor/Estrogen receptor beta (Homo sapiens) (P40337 whole entry, looked up): as the sequence (P40337 whole entry, looked up, one chain of several) above
Chain of von Hippel-Lindau disease tumor suppressor/Estrogen receptor beta (Homo sapiens) (Q92731 whole entry, looked up): as the sequence (Q92731 whole entry) above

For `Cc1ncsc1-c1ccc([C@H](C)NC(=O)[C@@H]2C[C@@H](O)CN2C(=O)[C@@H](NC(=O)CCCCCOc2ccc(N(CC(F)(F)F)S(=O)(=O)C3CC4OC3C(c3ccc(O)cc3)=C4c3ccc(O)cc3)cc2)C(C)(C)C)cc1` (stereo partly drawn), the Ki [1] was 5.08 µM, the inhibition [2] was “Active” and the RBA [3] was 0.03%. For the same molecule, the Activity [4] was “Active”, the inhibition [5] was “Active” and the Activity [6] was “inactive”. For the same molecule, the IC50 [7] was 4.17 µM, the Ki [8] was 26.2 µM and the Activity [9] was “Active”. For the same molecule, the Activity [10] was “Active”, the IC50 at 72 h [11] was 7.69 µM and the IC50 [12] was 1.51 µM. For the same molecule, the inhibition [13] was “Active”, the inhibition [14] was “Active” and the Selectivity ratio [15] was 1.33. For the same molecule, the Activity [16] was “Active”, the Activity [17] was “Active” and the Activity [18] was “Active”. The IC50 [19] was greater than 100 µM, the inhibition [20] was “Active” and the IC50 [21] was 1.35 µM. For the same molecule, the inhibition [22] was “Active”, the Activity [23] was “Active” and the inhibition [24] was “Active”. For the same molecule, the IC50 [25] was 0.05 µM, the Activity [26] was “Active” and the Ratio Ki [27] was 5.16. It also gave an IC50 [28] of 1.26 µM.
